Reference: publication doi:10.1101/507434v1 (bioRxiv, 2018)
Read-outs that look alike come from different tables or passages of the source. Bridge positions count the residues as written; N and C are the ends. Square brackets hold non-standard residues; d marks the D form. Ends that are not written are not given here. Peptide text beside a SMILES is read from it. d2Nal = N[C@H](Cc1ccc2ccccc2c1)C(=O)O; Nle = CCCC[C@H](N)C(=O)O

Legend:
[1] = system: rats given LPS to induce cachexia; assay: LPS; format: in vivo, rat; conditions: for body weight as percent of pre-LPS baseline (Fig 1 Panel D) / food intake (Fig 1 Panel C): rats given LPS, peptide IP at 2mg/kg, 24 hours following challenge, 8/group; for oral anticachexia activity: LPS challenge, oral route of peptide administration
Lewis sarcoma rat model = assay: Lewis sarcoma rat cancer cachexia model; format: in vivo; conditions: tumor-bearing rats, SC; for summary 6-Day food intake: two daily doses
[2] = Plasma and liver concentration of antiviral peptides after oral gavage in mice; format: in vivo, female mice; conditions: for level at time molar at 1 h / level at time molar at 2.5 h / level at time molar at 0.5 h / level at time molar at 2 h / level at time molar at 4 h: female, mouse, po; for level at time molar at 1 h / level at time molar at 2.5 h: 72 mg/kg; for level at time molar at 0.5 h / level at time molar at 2 h / level at time molar at 4 h: 60 mg/kg
[3] = system: hepatitis C virus (HCV) RNA; assay: Standard solution assays of anti-hepatitis C activity; format: biochemical
HCV replicon = conditions: cellular HCV replicon assay; ref Bradford and Cowan, 2012; cited from earlier work
[4] = ref Gallagher et al., 2016, cited from earlier work; for plasma half-life: separate experiment, in vitro or in vivo not stated
[5] = system: orthotopic human breast cancer cell line transplant (cell line MDA-MB-231); conditions: ref Gallagher et al., 2016; cited from earlier work
[6] = Pharmacokinetics of TCMCB07 in anesthetized rats: plasma and bile levels; format: in vivo, Sprague-Dawley rats
[7] = ref Iusuf et al., 2008; cited from earlier work

Question: For “Ac-Nle-c[Asp-Pro-D-Nal(2′)-Arg-Trp-Lys]-β-Pro-β^2-Val-NH2 (sidechain bridge or staple) [TCMCB05]”, which “body weight as percent of pre-LPS baseline (Fig 1 Panel D)” value (from here on “body weight as percent”) [1] is on record?
Answer: produced a significant weight gain

Question: What about the “food intake (Fig 1 Panel C)” value [1] of the same molecule?
Answer: stimulated appetite

Question: With CCCC[C@H](NC(C)=O)C(=O)N[C@H]1CC(=O)NCCCC[C@@H](C(=O)N[C@@H](C(=O)N2CCC[C@@H]2C(N)=O)C(C)C)NC(=O)[C@H](Cc2c[nH]c3ccccc23)NC(=O)[C@H](CCCNC(=N)N)NC(=O)[C@@H](Cc2ccc3ccccc3c2)NC(=O)[C@@H]2CCCN2C1=O [TCMCB07] (Ac-[Nle]DP[d2Nal]RWK[dV][dP]-NH2; lactam 2-7) as the molecule, how does the “body weight as percent” value [1] read?
Answer: produced a significant weight gain

Question: What about the “food intake (Fig 1 Panel C)” value [1] of the same molecule?
Answer: stimulated appetite

Question: And the oral anticachexia activity ([1]; rats)?
Answer: shown to have oral anticachexia activity

Question: And the “tumor weight / tumor growth” value (Lewis sarcoma rat model; 1.5 and 3 mg/kg BW/day, data not shown)?
Answer: no effect on tumor growth

Question: And the “summary 6-Day food intake” value (Lewis sarcoma rat model; total 1.5 mg/kg BW/day (LB07))?
Answer: not different than Sham/saline controls

Question: What about the “summary 6-Day food intake” value (Lewis sarcoma rat model; total 3mg/kg BW/day (HB07)) of the same molecule?
Answer: not different than Sham/saline controls

Question: Which level at time molar at 1 h ([2]; liver) does the source give for CC(=O)NCC(=O)NCC(=O)N[C@@H](Cc1c[nH]cn1)C(=O)N[C@H]1CC(=O)NCCCC[C@@H](C(=O)N[C@@H](C(=O)N2CCC[C@@H]2C(N)=O)C(C)C)NC(=O)[C@H](CCCCN)NC(=O)[C@H](Cc2ccccc2)NC(=O)[C@H](CCCNC(=N)N)NC(=O)[C@H](Cc2ccc(O)cc2)NC1=O [TCMP01] (Ac-GGHDYRFKK[dV][dP]-NH2; lactam 4-9) here?
Answer: 14 nM

Question: And the level at time molar at 2.5 h ([2]; liver)?
Answer: 4 nM

Question: And the level at time molar at 1 h ([2]; plasma)?
Answer: 1000 nM

Question: And the level at time molar at 2.5 h ([2]; plasma)?
Answer: 24 nM

Question: And the “solution antihepatitis activity relative to the parent peptide Metallo-drug 2-Cu” value [3]?
Answer: within a factor of two

Question: Which oral availability ([2]; mice, oral gavage, also short circulating half-life and poor liver uptake stated) does the source give for “GGHY[dR]FK [Metallo-drug 2-Cu, reference compound]” here?
Answer: no oral availability

Question: What about the antiviral activity (HCV replicon) of the same molecule?
Answer: confirmed

Question: Which plasma half-life [4] does the source give for “Ac-Nle-c(Asp-Arg-Val-Tyr-Ile-His-Pro-Lys)-D-Val-D-Pro-NH2 (sidechain bridge or staple) [TCANG05]” here?
Answer: 50 h

Question: And the “stability compared to angiotensin 1-7” value ([4]; using in vitro and in vivo assays)?
Answer: greatly enhanced stability

Question: And the oral activity [5]?
Answer: orally active

Question: For CCCC[C@H](NC(C)=O)C(=O)N[C@H]1CC(=O)NCCCC[C@@H](C(=O)N[C@@H](C(=O)N2CCC[C@@H]2C(N)=O)C(C)C)NC(=O)[C@H](Cc2c[nH]c3ccccc23)NC(=O)[C@H](CCCN=C(N)N)NC(=O)[C@@H](Cc2ccc3ccccc3c2)NC(=O)[C@@H]2CCCN2C1=O [TCMCB07] (Ac-[Nle]DP[d2Nal]RWK[dV][dP]-NH2; lactam 2-7), which Tmax ([6]; Sprague-Dawley, rat, plasma, sc, 3 mg/kg) is on record?
Answer: 2.5 h

Question: And the “in vivo mechanism of clearance” value ([6]; anesthetized rats, 3mg/kg SC (Fig. 3))?
Answer: hepatic blood-to-bile transport

Question: For CC(=O)NCC(=O)NCC(=O)N[C@@H](Cc1c[nH]cn1)C(=O)N[C@H]1CC(=O)NCCCC[C@@H](C(=O)N[C@@H](C(=O)N2CCC[C@@H]2C(N)=O)C(C)C)NC(=O)[C@H](CCCCN)NC(=O)[C@H](Cc2ccccc2)NC(=O)[C@H](CCCNC(=N)N)NC(=O)[C@H](Cc2ccc(O)cc2)NC(=O)[C@@H]2CCCN2C1=O [TCMP03] (Ac-GGHDPYRFKK[dV][dP]-NH2; lactam 4-10), which level at time molar at 0.5 h ([2]; liver) is on record?
Answer: 43 nM

Question: What about the level at time molar at 2 h ([2]; liver) of the same molecule?
Answer: 30 nM

Question: What about the level at time molar at 4 h ([2]; liver) of the same molecule?
Answer: 4 nM

Question: And the level at time molar at 0.5 h ([2]; plasma)?
Answer: 2910 nM

Question: What about the level at time molar at 2 h ([2]; plasma) of the same molecule?
Answer: 75700 nM

Question: And the level at time molar at 4 h ([2]; plasma)?
Answer: 384 nM

Question: What about the “enhancement of hepatic (target tissue) uptake relative to TCMP01” value ([2]; mice, oral gavage, Table 3) of the same molecule?
Answer: 4 fold

Question: And the “solution antihepatitis activity relative to the parent peptide Metallo-drug 2-Cu” value [3]?
Answer: within a factor of two

Question: With “Ac-Nle-c[Asp-Pro-D-Nal(2′)-Arg-Trp-Lys]-β-Pro-β^3-Val-NH2 (sidechain bridge or staple) [TCMCB06]” as the molecule, how does the “body weight as percent” value [1] read?
Answer: no weight gain

Question: For “Asp-Arg-Val-Tyr-Ile-His-Pro-OH [angiotensin^1-7, reference compound]”, which plasma half-life [4] is on record?
Answer: 0.5 h

Question: And the oral activity [5]?
Answer: not orally active

Question: And the plasma half-life [7]?
Answer: ~0.5 h

Question: Which results are given for “Ac-Nle-^1 c(Asp-Pro-D-Nal2’-Arg-Trp-Lys)-D-Pro-D-Val-NH2 (sidechain bridge or staple) [TCMCB02]”?
Answer: oral anticachexia activity ([1]; rats): no oral anticachexia activity; overnight body weight gain ([1]; rats, parenteral peptide after parenteral LPS, end of 12 hr dark cycle, n=6): ~5%
